Results as given in ChEMBL document CHEMBL3507680, “University of Dundee, Gates Library screen for HepG2 cell viability”.

Assay: Human HepG2 cell viability assay in 384 well format
Assay type: toxicity, cell-based
Design: dose 125 nL, time 70.5 hour; concentration not given beside the values
Settings: HepG2 cells, read-out: Inhibition

| Structure (SMILES) | cytotoxicity at 70.5 h [%] |
| --- | --- |
| CCS(=O)(=O)NCCN1CCc2ccc(F)cc2C1C (stereo not given) | -4.91 |
| O=C(CCc1ccco1)Nc1ncn(CC(=O)N2CCCCCC2)n1 | -2.03 |
| COCCN1CC(C(=O)N(C)Cc2cc(-c3cccnc3)no2)CC1=O (stereo not given) | -11.9 |
| O=C1N(CC2CC2)CCCC1(O)CN1CCc2[nH]ncc2C1 (stereo not given) | -4.29 |
| COC(=O)CCCC(=O)N1CCCCC1c1ccc(F)cc1 (stereo not given) | 2.01 |
| CC(=O)N1CCC(c2nc3ccc(C)cn3n2)CC1 | -0.807 |
| COc1cccn(CC(=O)N2CCC3(CCNCC3)C2)c1=O | -13.1 |
| Cc1cc(C)c(CNc2ncnc3ccsc23)c(=O)[nH]1 | -9.82 |
| O=C(C1CCCCC1)N1CCCC([C@@H]2C[C@H](C(F)F)n3ncnc3N2)C1 (stereo not given in full) | -5.82 |
| COc1ccc2c(ccn2CC(=O)Nc2n[nH]c(C(C)C)n2)c1 | -12.1 |
| Cn1cccc1C(=O)N1CCC2(CC1)CC(N1CCOCC1)C2 | -12.5 |
| Cc1cnn(CC(C)NCc2csc(-c3cnn(C)c3)n2)c1 (stereo not given) | 51.9 |
| COc1ccc(CN2CC[C@@H](O)[C@@H]2Cc2cnn(C)c2)cc1 | 21.7 |
| CCN(C)S(=O)(=O)N1C[C@@H]2CC[C@H](C1)N(Cc1cscn1)C2=O | -8.95 |
| O=C(NCCn1ccnc1)N1CCCC1c1ccncc1 (stereo not given) | 1.26 |
| COC(=O)C(CNC(=O)Nc1nncs1)Cc1ccc(F)cc1 (stereo not given) | -4.56 |
| CCC(C)NC(=O)c1nnn(-c2cccc3c2CCN(C)C3)c1C (stereo not given) | 2.37 |
| COCC(=O)NC(C)Cc1cccc(Cl)c1 (stereo not given) | 5.75 |
| O=C(Nc1ccccc1Cl)N1CCN(CC2CC2)[C@@H]2CS(=O)(=O)C[C@@H]21 | 16.8 |
| OC1(CN2CCOC(Cn3cccn3)C2)CCCCC1 (stereo not given) | 0.595 |
| O=C(NCc1ccccc1F)N1CCCCC1C1OCCO1 (stereo not given) | -17.1 |
| Cc1nc2c(c(N3CCN(Cc4ccco4)CC3)n1)CCNCC2 | -4.87 |
| CCOc1ccnc(N2CCN(C(=O)c3cnc[nH]3)CC2)n1 | -0.507 |

| Structure (SMILES) | cytotoxicity at 70.5 h [%] |
| --- | --- |
| COc1ccc(C(=O)N2CC[C@@H](N3CCC(O)CC3)[C@H](O)C2)cc1C | -3.31 |
| Cn1cc(CCNC(=O)C2(c3cccc(Cl)c3)CC2)cn1 | -18.4 |
| CCCNC(=O)c1cncc(CC2CCCN(C)C2)c1 (stereo not given) | -6.34 |
| CC(NCc1cccn1C)c1noc(-c2ccc(Cl)cc2)n1 (stereo not given) | -9.95 |
| COc1cc(F)c(S(=O)(=O)NCc2ccnc(N(C)C)n2)cc1OC | -8.38 |
| Cn1ccnc1CCC1CCCCN1Cc1nccn1C (stereo not given) | 14.9 |
| CCn1nnc2c1C(COCCN(C)C)CN(Cc1ccc(C)s1)C2 (stereo not given) | 3.05 |
| O=C(NC[C@H]1OC[C@@H](NCc2ccc(F)cc2)[C@@H]1O)N1CCOCC1 | -8.58 |
| Cc1nc(CN2CCCC2Cn2cncn2)no1 (stereo not given) | 13.1 |
| CC(C)Cc1cc(NC(=O)c2ccc(=O)[nH]n2)n(C)n1 | -2.14 |
| Cc1ccoc1C(=O)N1CCO[C@H]2[C@H](OCC3CCOCC3)CC[C@@H]21 | -15 |
| Cc1cc(NC(C)c2nnn[nH]2)n2nc(C)c(C)c2n1 (stereo not given) | 5.16 |
| COc1ccc(C(N)c2cccc(S(C)(=O)=O)c2)cc1 (stereo not given) | -1.22 |
| O=C(NC1CCCN(c2ccccc2F)C1)c1ccon1 (stereo not given) | -9.69 |
| Cc1ccc(N2CCC3(CCN(C(=O)c4ccsc4)CC3)C2)nn1 | 4.86 |
| c1c2c(nn1CC1CCOCC1)C(CNC1CCOCC1)OCC2 (stereo not given) | 7.06 |
| O=C(CCC(=O)N1CCC(Cc2ccc(CO)cc2)C1)c1ccccc1 (stereo not given) | -13.8 |
| O=C(NCCN1CCOCC1)c1cc(-c2ccccc2Cl)[nH]n1 | 1.45 |
| O=C(Nc1ccccc1)N1CCc2nc(C(=O)N3CCCC3)sc2CC1 | -2.49 |
| Cn1cc(CC2CC(=O)N(Cc3ccc(Cl)cc3)C2=O)cn1 (stereo not given) | 24.4 |
| Cc1nc(C)n(CC2CCCN2CC(=O)NCCc2cccs2)n1 (stereo not given) | -15.5 |
| CC(C)c1nc(CNCC2CCCN2c2cccnn2)cs1 (stereo not given) | -8.04 |
